# Reference: patent US20230002346A1, “NEW COMPOUNDS AND METHODS” (BenevolentAl Bio Limited, priority 2019, published 2023)
# Columns and labels:
# [1] = Brain to plasma (B:P) ratio in rat; assay type: in vivo, Sprague Dawley Rats; details: male, Sprague Dawley, po, p.o. 3.0 mg/kg, 30% HPBC in water; for Kp: timepoints averaged 0.5-4 h
# Description: Male Sprague Dawley Rats 300-350 g (Charles River, UK) were group housed, n=3, under a 12 h light/dark cycle with food and water available ad libitum. At 17:00 on the day prior to dosing all food was removed. On the day of dosing animals were weighed, tail marked and dosed via oral gavage with compound at 3 mg/kg in a volume of 5 mL/kg. Animals were culled at 30 min, 1 h and 4 h post dose via intra-peritoneal administration of pentobarbital. Post mortem blood was withdrawn via cardiac puncture, and briefly stored in K2 EDTA blood tubes on ice before being spun at 14,000 g for 4 min at 4° C. Plasma was withdrawn into a 96 well plate, placed on dry ice and stored at −80° C. Brains were quickly dissected and placed on dry ice before storage at −80° C. Bioanalysis of plasma and brain samples is performed as detailed below. Methods were prepared with guidance from industry standard documents.^i,ii […] Calibration lines are prepared in control male Sprague-Dawley Rat plasma at known concentrations in the range of 1-10000 ng/mL by spiking 2.5 μL of calibration spiking solution into 25 μL control plasma. Experimental samples are thawed to RT and 25 μL aliquots are extracted alongside the calibration lines using protein precipitation (agitation for at least 5 min at RT with 400 μL of MeCN containing 25 ng/mL tolbutamide as an internal standard). Protein precipitates are separated from the extracted test compound by centrifugation at 4000 rpm for 5 min, 4° C. […] Samples are analysed by UPLC-MS/MS on either an API6500 QTrap or Waters 30 TQS mass spectrometer using previously optimised analytical MRM (multiple reaction monitoring) methods, specific to the test compound. The concentration of test compound in isolated samples is determined following analysis of the samples against the two replicates of the calibration line, injected before and after the sample set with an appropriate regression and weighting used. Only samples within 20% of the expected test concentration are included in the calibration line and any samples that fall outside of the limits of the calibration line will be deemed to be less than or above the limit of quantification (LLoQ/ALoQ). […] Calibration lines are prepared in control male Sprague-Dawley Rat brain homogenate at known concentrations in the range of 3-30000 ng/g by spiking 2.5 μL of calibration spiking solution into 25 μL control homogenate. To prepare control and experimental brain homogenates, brains are thawed, weighed and a volume of diluent added (water) in the ratio of 2 mL per gram of brain. Homogenisation of brains is performed by bead-beater homogenisation using Precellys Evolution and CK14 7 mL small ceramic bead homogenisation tubes. Aliquots of 25 μL experimental sample are extracted alongside the calibration lines using protein precipitation (agitation for at least 5 min at RT with 400 μL of MeCN containing 25 ng/mL tolbutamide as an internal standard). Protein precipitates are separated from the extracted test compound by centrifugation at 4000 rpm for 5 min, 4° C. […] Samples are analysed by UPLC-MS/MS on either an API6500 QTrap or Waters TQS mass spectrometer using previously optimised analytical MRM (multiple reaction monitoring) methods, specific to the test compound. The concentration of test compound in isolated samples is determined following analysis of the samples against the two replicates of the calibration line, injected before and after the sample set with an appropriate regression and weighting used. Only samples within 20% of the expected test concentration are included in the calibration line and any samples that fall outside of the limits of the calibration line will be deemed to be less than or above the limit of quantification (LLoQ/ALoQ). Total brain to plasma (B:P) ratios were calculated by dividing the concentration in the brain by the concentration in plasma for each timepoint. The mean brain to plasma ratio is calculated by averaging these brain to plasma ratios across certain timepoints. […]
# hERG channel = molecular target: T1, hERG channel (Homo sapiens, UniProt Q12809); assay: hERG assay (QPatch automated patch clamp, CHO cells); assay type: cell-based; details: CHO cells expressing hERG, whole-cell patch clamp, 0.003 μM to 10 μM
# T1 construct: expressed in transfected cells
# Description: The human ether-a-go-go related gene (hERG) potassium channel (Kv11.1) contributes to human cardiac action potential repolarisation. Inhibition of hERG channels can prolong the human cardiac action potential, resulting in QTc prolongation and potentially lethal arrhythmias (e.g. Torsade de Pointes).
# Test samples were screened against the hERG channel on a QPatch 48 gigaseal automated patch clamp platform, using a Chinese Hamster Ovary (CHO) cell line stably expressing the human ether-á-go-go related gene, which encodes the hERG channel. All recordings were made in the conventional whole-cell configuration and performed at RT ([…]) using standard single hole chips (Rchip 1.5-4M0). Series resistance (4-15Mc) was compensated by >80%. Currents were elicited from a holding potential of −90 mV using the industry standard “^+40/−40” voltage protocol, which was applied at a stimulus frequency of 0.1 Hz. On achieving the whole-cell configuration, vehicle (0.1% DMSO v/v in external recording solution) was applied to each cell in two bolus additions with a 2 min recording period between each addition. Following the vehicle period, eight increasing concentrations of test sample were applied from 0.003 μM to 10 μM as a single bolus addition per test concentration, and the effects on hERG tail current amplitude measured during the 2 min recording period. Each eight-point concentration-response curve was constructed using cumulative single sample additions of each concentration to the same cell. The positive control used in this study was verapamil hydrochloride (Tocris, Cat #0654, Batch #5A/61673) and prepared to a stock concentration of 10 mM in 100% DMSO and kept as frozen aliquots.
# Data analysis: All cells passing the QC parameters (i.e. >200 pA outward current, membrane resistance and rundown) are selected as ‘passed QC’ using the QPatch software, which then calculates the mean peak current for the last three sweeps at the end of each concentration application period from the cursor positions defined. Percent inhibition is calculated for each test concentration application period as the reduction in mean cursor value (peak current or charge) relative to the cursor value measured at the end of the control (i.e. vehicle) period. The percent inhibition values from each cell are used to construct concentration-response curves employing a four parametric logistic fit with 0 and 100% inhibition levels fixed at very low and very high concentrations, respectively, and a free Hill slope factor. The IC50 (50% inhibitory concentration) and Hill coefficient are then determined, but only data from cells with Hill slopes within 0.5>nH<2.0 are included. The IC50 data reported below represents the mean (and S.D.) of at least three separate cells (N≥3). […] Compounds of the invention show reduced hERG inhibitory activity compared to the reference examples.
# [2] = Kinetic aqueous solubility assay; assay type: physicochemical; details: aqueous buffer, kinetic from dmso stock, 0.05M potassium phosphate buffer pH 7.4, 250 μM spike, RT
# Description: Using a 10 mM stock solution of test compound in 100% DMSO, test compounds were spiked into 0.05M potassium phosphate buffer (pH 7.4) at a final concentration of 250 μM. Samples in buffer (n=2 aqueous samples, in 96-well plates) were allowed to equilibrate at RT on an orbital shaker for 30 min (300 rpm) to induce precipitation of test compounds. The appearance of each sample was determined by visual examination and noted (clear, cloudy, precipitate observed etc.). […] The concentration of compound in phosphate buffer filtrate was determined by comparing the UV absorbance peak area of each replicate against that of the calibration standards. […] Compounds of the invention have much improved solubility compared to the reference examples.
# [3] = Rat PK profile (bioavailability, clearance, half-life); assay type: in vivo; details: male, Sprague Dawley, plasma, i.v. dose 1 mg/kg; for clearance / half-life: iv; for half-life: read-out: T½ (converted); for bioavailability: po, p.o. dose 3 mg/kg
# Description: Male Sprague Dawley Rats 300-350 g (Charles River, UK) were group housed, n=3, under a 12 h light/dark cycle with food and water available ad libitum. At 17:00 on the day prior to dosing all food was removed. On the day of dosing animals were weighed, tail marked and dosed via oral gavage with compound at 3 mg/kg in a volume of 5 mL/kg. Animals were culled at 30 min, 1 h and 4 h post dose via intra-peritoneal administration of pentobarbital. Post mortem blood was withdrawn via cardiac puncture, and briefly stored in K2 EDTA blood tubes on ice before being spun at 14,000 g for 4 min at 4° C. Plasma was withdrawn into a 96 well plate, placed on dry ice and stored at −80° C. Brains were quickly dissected and placed on dry ice before storage at −80° C. Bioanalysis of plasma and brain samples is performed as detailed below. Methods were prepared with guidance from industry standard documents.^i,ii
# A 10 mM DMSO stock is used to prepare spiking solutions of test compound in the range of 10-100,000 ng/mL in diluent (MeCN:water, 1;1). Calibration lines are prepared in control male Sprague-Dawley Rat plasma at known concentrations in the range of 1-10000 ng/mL by spiking 2.5 μL of calibration spiking solution into 25 μL control plasma. Experimental samples are thawed to RT and 25 μL aliquots are extracted alongside the calibration lines using protein precipitation (agitation for at least 5 min at RT with 400 μL of MeCN containing 25 ng/mL tolbutamide as an internal standard). Protein precipitates are separated from the extracted test compound by centrifugation at 4000 rpm for 5 min, 4° C. The resulting supernatants are diluted in a ratio of 1:2 with a relevant diluent (e.g. 0.1% formic acid in water or 1:1 MeOH:water). Samples are analysed by UPLC-MS/MS on either an API6500 QTrap or Waters 30 TQS mass spectrometer using previously optimised analytical MRM (multiple reaction monitoring) methods, specific to the test compound. The concentration of test compound in isolated samples is determined following analysis of the samples against the two replicates of the calibration line, injected before and after the sample set with an appropriate regression and weighting used. Only samples within 20% of the expected test concentration are included in the calibration line and any samples that fall outside of the limits of the calibration line will be deemed to be less than or above the limit of quantification (LLoQ/ALoQ).
# Pharmacokinetic parameters such as bioavailability (% F), clearance (CL), half-life (T½) and volume of distribution are calculated by non-compartmental analysis using Phoenix Winnonlin 64 software (build 8.0). The bioavailability was calculated from p.o. dosed rats, whereas the clearance and half-life were calculated from i.v. dosed rats. Briefly, in vivo plasma concentrations, timepoints and dose values are imported into the software in a compatible format. Plasma concentration for each animal is plotted against time, and the elimination phase identified and selected. The area under the curve for each plot is calculated using a linear trapezoidal linear interpolation from which pharmacokinetic parameters can subsequently be determined. […] Compounds of the invention have much improved clearance (CL) and half-life (T½) compared to the reference examples.
# T1 sequence (Q12809 whole entry): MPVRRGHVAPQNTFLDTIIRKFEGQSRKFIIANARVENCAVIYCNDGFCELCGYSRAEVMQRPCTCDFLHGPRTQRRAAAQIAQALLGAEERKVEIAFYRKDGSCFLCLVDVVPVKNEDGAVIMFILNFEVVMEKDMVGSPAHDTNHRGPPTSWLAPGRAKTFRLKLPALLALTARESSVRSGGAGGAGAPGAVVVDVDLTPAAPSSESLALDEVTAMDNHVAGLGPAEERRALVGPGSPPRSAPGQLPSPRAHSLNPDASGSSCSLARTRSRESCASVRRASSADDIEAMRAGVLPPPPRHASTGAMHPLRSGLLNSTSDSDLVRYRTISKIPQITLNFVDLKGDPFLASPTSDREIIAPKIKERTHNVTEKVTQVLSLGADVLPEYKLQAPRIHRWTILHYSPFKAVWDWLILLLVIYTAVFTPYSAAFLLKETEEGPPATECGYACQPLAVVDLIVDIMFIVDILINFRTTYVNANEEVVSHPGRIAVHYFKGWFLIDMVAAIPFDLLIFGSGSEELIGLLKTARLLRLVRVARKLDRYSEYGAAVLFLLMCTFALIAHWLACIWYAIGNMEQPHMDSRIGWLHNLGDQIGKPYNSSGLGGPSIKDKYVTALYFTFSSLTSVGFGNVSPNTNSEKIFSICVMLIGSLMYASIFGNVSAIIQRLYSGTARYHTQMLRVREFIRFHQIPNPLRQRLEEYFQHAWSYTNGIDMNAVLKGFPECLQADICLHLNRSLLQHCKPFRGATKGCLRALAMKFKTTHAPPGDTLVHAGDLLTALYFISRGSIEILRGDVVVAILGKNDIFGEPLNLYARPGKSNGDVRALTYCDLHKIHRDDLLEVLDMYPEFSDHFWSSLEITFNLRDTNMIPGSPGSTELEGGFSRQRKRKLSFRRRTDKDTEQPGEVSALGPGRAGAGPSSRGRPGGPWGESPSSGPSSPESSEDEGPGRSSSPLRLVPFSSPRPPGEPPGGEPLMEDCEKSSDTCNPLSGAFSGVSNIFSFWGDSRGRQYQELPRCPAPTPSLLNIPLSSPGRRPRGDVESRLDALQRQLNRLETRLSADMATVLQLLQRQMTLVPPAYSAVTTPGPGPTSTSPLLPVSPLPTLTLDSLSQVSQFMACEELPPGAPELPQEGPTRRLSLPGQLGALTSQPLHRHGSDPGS
Kp [1],solubility at 30 min [2] [µM],clearance [3] [L/h/kg],half-life [3] [h],bioavailability [3] [%],SMILES,IC50 (hERG channel) [µM],also measured
0.79,–,–,–,–,"COc1ccc(-n2cc(C(=O)Nc3ccc(OC(F)(F)Cl)cc3)ccc2=O)cn1 [Example 13, N-[4-[Chloro(difluoro)methoxy]phenyl]-1-(6-methoxy-3-pyridyl)-6-oxo-pyridine-3-carboxamide]",–,–
0.68,–,–,–,–,"O=C(Nc1ccc(OC(F)(F)Cl)cc1)c1ccc(=O)n(-c2ccc(F)c(F)c2)c1 [Example 24, N-[4-(Chlorodifluoromethoxy)phenyl]-1-(3,4-difluorophenyl)-6-oxo-1,6-dihydropyridine-3-carboxamide]",> 10,–
0.98,120,–,–,–,"O=C(Nc1ccc(OC(F)(F)Cl)cc1)c1ccc(=O)n(-c2ccc(F)cc2)c1 [Example 42, N-[4-(Chlorodifluoromethoxy)phenyl]-1-(4-fluorophenyl)-6-oxo-1,6-dihydropyridine-3-carboxamide]",–,–
1.54,–,–,–,–,"O=C(Nc1ccc(OC(F)(F)Cl)cc1)c1ccc(=O)n(-c2cccc(F)c2)c1 [Example 47, N-[4-(Chlorodifluoromethoxy)phenyl]-1-(3-fluorophenyl)-6-oxo-1,6-dihydropyridine-3-carboxamide]",> 10,–
0.31,170,–,–,–,"Cc1ccc(-n2cc(C(=O)Nc3ccc(OC(F)(F)Cl)cc3)ccc2=O)cn1 [Example 65, N-[4-(Chlorodifluoromethoxy)phenyl]-6′-methyl-2-oxo-2H-[1,3′-bipyridine]-5-carboxamide]",–,–

# The next lines start with the compound.
SMILES,Kp [1],solubility at 30 min [2] [µM],clearance [3] [L/h/kg],half-life [3] [h],bioavailability [3] [%],IC50 (hERG channel) [µM],also measured
"COc1cccc(-n2cc(C(=O)Nc3ccc(OC(F)(F)Cl)cc3)ccc2=O)c1 [Example 35, N-[4-(Chlorodifluoromethoxy)phenyl]-1-(3-methoxyphenyl)-6-oxo-1,6-dihydropyridine-3-carboxamide]",–,–,–,–,–,> 10,Kp at 1 h ([1]; timepoint 1 h): 1.11
"Cn1cc(C(=O)Nc2ccc(OC(F)(F)Cl)cc2)cc(-c2cccnc2)c1=O [Example 81, N-[4-[Chloro(difluoro)methoxy]phenyl]-1-methyl-6-oxo-5-(3-pyridyl)pyridine-3-carboxamide]",–,–,0.18,6.2,102,–,–
"Cn1cc(C(=O)Nc2ccc(OC(F)(F)Cl)cc2)cc(-c2ccccc2)c1=O [Example 88, N-[4-[Chloro(difluoro)methoxy]phenyl]-1-methyl-6-oxo-5-phenyl-pyridine-3-carboxamide]",0.69,–,–,–,–,–,–
"O=C(Nc1ccc(OC(F)(F)Cl)cc1)c1cnc(N2CC[C@@H](O)C2)c(-c2ccn[nH]2)c1 [Ref. ex. 1, N-[4-[Chloro(difluoro)methoxy]phenyl]-6-[(3R)-3-hydroxypyrrolidin-1-yl]-5-(1H-pyrazol-5-yl)pyridine-3-carboxamide, reference compound]",–,–,1.32,2.1,4,–,–
"O=C(Nc1ccc(OC(F)(F)F)cc1)c1cncc(-c2cccnc2)c1 [Ref. ex. 4, 5-(3-Pyridyl)-N-[4-(trifluoromethoxy)phenyl]pyridine-3-carboxamide, reference compound]",–,< 5,0.72,1.2,113,4.7,–
